According to the NIST ThermoML archive (doi:10.1016/j.fluid.2017.03.025):
“And” between values parts separate entries of the source, which are not always exact repeats. Equal values may be shown once.

Test: wn = mass fraction of the nth substance listed
Conditions: discharge crucible method; for mass density / viscosity: 101 kPa, Liquid

[Zn] [zinc] + [Ga]
Conditions | mass density | surface tension liquid-gas | viscosity
323 K, w1 = 0.036 | 6081 kg/m3 | 722.9 mN/m | 1.576 mPa·s
373 K, w1 = 0.036 | 6049 kg/m3 | 719.2 mN/m | 1.336 mPa·s
423 K, w1 = 0.036 | 6018 kg/m3 | 715.6 mN/m | 1.139 mPa·s
423 K, w1 = 0.25 | 6205 kg/m3 | 733 mN/m | 2.596 mPa·s
473 K, w1 = 0.036 | 5989 kg/m3 | 712 mN/m | 1.018 mPa·s
473 K, w1 = 0.25 | 6175 kg/m3 | 728.9 mN/m | 2.037 mPa·s
523 K, w1 = 0.036 | 5956 kg/m3 | 708.4 mN/m | 0.924 mPa·s
523 K, w1 = 0.25 | 6146 kg/m3 | 723.5 mN/m | 1.733 mPa·s
573 K, w1 = 0.036 | 5929 kg/m3 | 704.9 mN/m | 0.845 mPa·s
573 K, w1 = 0.25 | 6115 kg/m3 | 718.9 mN/m | 1.529 mPa·s
573 K, w1 = 0.5 | 6355 kg/m3 | 748.5 mN/m | 2.861 mPa·s
623 K, w1 = 0.036 | 5896 kg/m3 | 701.2 mN/m | 0.779 mPa·s
623 K, w1 = 0.25 | 6079 kg/m3 | 714.6 mN/m | 1.375 mPa·s
623 K, w1 = 0.5 | 6323 kg/m3 | 739.8 mN/m | 2.394 mPa·s
623 K, w1 = 0.75 | 6584 kg/m3 | 773.5 mN/m | 3.588 mPa·s
673 K, w1 = 0.036 | 5866 kg/m3 | 697.7 mN/m | 0.736 mPa·s
673 K, w1 = 0.25 | 6052 kg/m3 | 709.7 mN/m | 1.261 mPa·s
673 K, w1 = 0.5 | 6302 kg/m3 | 733.3 mN/m | 2.112 mPa·s
673 K, w1 = 0.75 | 6557 kg/m3 | 764.1 mN/m | 3.019 mPa·s
673 K, w1 = 0.9 | 6721 kg/m3 | 792.3 mN/m | 3.809 mPa·s
723 K, w1 = 0.036 | 5836 kg/m3 | 693.8 mN/m and 694.3 mN/m | 0.709 mPa·s and 0.699 mPa·s
723 K, w1 = 0.25 | 6024 kg/m3 and 6025 kg/m3 | 705.2 mN/m and 705.5 mN/m | 1.148 mPa·s and 1.159 mPa·s
723 K, w1 = 0.5 | 6277 kg/m3 and 6276 kg/m3 | 725.3 mN/m | 1.875 mPa·s and 1.871 mPa·s
723 K, w1 = 0.75 | 6537 kg/m3 and 6536 kg/m3 | 753.4 mN/m and 754 mN/m | 2.625 mPa·s
723 K, w1 = 0.9 | 6699 kg/m3 and 6700 kg/m3 | 780.5 mN/m and 780.4 mN/m | 3.225 mPa·s and 3.241 mPa·s
723 K, w1 = 1 | 6831 kg/m3 | 812.1 mN/m | 3.721 mPa·s
773 K, w1 = 0.036 | 5806 kg/m3 | 690.8 mN/m | 0.662 mPa·s
773 K, w1 = 0.25 | 5998 kg/m3 | 700.4 mN/m | 1.098 mPa·s
773 K, w1 = 0.5 | 6249 kg/m3 | 717.7 mN/m | 1.693 mPa·s
773 K, w1 = 0.75 | 6512 kg/m3 | 744.6 mN/m | 2.323 mPa·s
773 K, w1 = 0.9 | 6679 kg/m3 | 768.7 mN/m | 2.813 mPa·s
823 K, w1 = 0.9 | 6657 kg/m3 | 755.5 mN/m | 2.517 mPa·s
